In patent publication US20100317731A1, “Hyperhidrosis treatment” (priority 2009, published 2010):

How the values were obtained:
Type in all cases: in vivo, human
[1] = system: patients with excessive sweating; test: Inventor's data and observations in patients with excessive sweating
Text: Based on data and observations that the inventor has, they have found topiramate (Topamax®) to have the following, previously undiscovered, beneficial pharmacological effects for patients with excessive sweating: The patient population in which the inventor has seen these benefits included both men and women ranging in age from 25 to 79 years. […] Optionally, the topiramate can be taken as a low dose on an as-needed basis to treat these sweating episodes. […] The inventor became convinced that topiramate was effective in the treatment of excessive sweating. They observed the improvement in patients whose sweating was induced by various antidepressant medications. Some experienced such sweating severity that they had to change their bedding at night as well as their night clothes. Others found it too embarrassing in the day time to the extent that it interfered with their work and social life; and some became reluctant to take their required antidepressant.

[2] = system: patients with excessive sweating (drug-induced hyperhidrosis); test: Clinical examples: single patient case reports of excessive sweating treated with topiramate
[3] = system: patients who complained of excessive sweating; test: Open label study of 26 patients with excessive sweating treated with topiramate; details: 26 patients (18 females, 8 males), total daily dose 25 mg to 100 mg, subjective assessment and report, all on one or more antidepressant
Method: In an open label study of 26 patients (18 females and 8 males) who complained of excessive sweating were treated with topiramate on the basis of off label prescribing. The patients were informed of the off-label nature of the treatment and they were counseled about the potential side effects of topiramate. The total daily dose ranged from 25 mg to 100 mg. Over 95% of patients experienced a significant response based on their subjective assessment and report. Patients were all adults with an age range from 25 yrs to 79 yrs. All the patients were on one or more antidepressant including various SSRI's with or without Bupropion. However, several of the patients had experienced excessive sweating for other reasons and before the use of antidepressants, even though adding the antidepressant exacerbated their underlying hyperhidrosis. Some of the underlying causes included perimenopause/menopause as well as primary or idiopathic hyperhidrosis. some had identified vulnerability from before, only made worse by antidepressants.

[4] = men and women aged 25 to 79 years
[5] = patients with excessive sweating

With `CC1(C)O[C@@H]2[C@@H](CO[C@@]3(COS(N)(=O)=O)OC(C)(C)O[C@@H]23)O1` [topiramate] the “effectiveness against drug-induced hyperhidrosis at low dose” value ([1]; doses as low as 12.5 mg per day in an adult) was “highly effective”, the “incidence of side effects at low dosage” value ([1]; low dosage) was “without significant incidence of those side effects” and the “benefit in the patient population” value [1, 4] was “all benefited”. The “side effects in the patient population” value [1, 4] was “minimal side effects”, the “effect on excessive sweating caused by antidepressants and similar medications” value [1, 5] was “Substantial improvement” and the “effect on excessive sweating caused by primary or idiopathic hyperhidrosis” value [1, 5] was “Substantial improvement”. For the same molecule, the “effect on excessive sweating from other miscellaneous causes of hyperhidrosis” value [1, 5] was “Substantial improvement”, the “effect on excessive sweating, idiopathic or drug-induced” value [1, 5] was “Substantial improvement” and the “effectiveness when used on an as needed basis” value [1, 5] was “effective”. The “excessive sweating, patient report” value ([2]; Example 1, a person, Cymbalta 60 mg daily, retrial of topiramate 25 mg twice daily) was “much better”, the “excessive sweating, patient report” value ([2]; Example 1, a person, Cymbalta 80 mg daily, topiramate raised from 50 mg daily to 50 mg twice daily) was “after initial improvement with the topiramate increase, the excessive sweating has recurred” and the “excessive sweating, patient report” value ([2]; Example 2, a person, Cymbalta and Wellbutrin XL, topiramate 25 mg daily) was “much better”. The “adverse effects, patient report” value ([2]; Example 2, a person, topiramate 25 mg per day) was “no adverse effects”, the “excessive sweating, patient report” value ([2]; Example 3, a person, Effexor XR 300 mg daily, topiramate 50 mg daily) was “much improvement” and the “adverse effects, patient report” value ([2]; Example 3, a person, topiramate 50 mg daily) was “no adverse effects”. For the same molecule, the “excessive sweating, patient report” value ([2]; Example 4, a person, Zoloft, topiramate 25 mg twice daily) was “improved”, the “effectiveness when taken on an as needed basis” value ([2]; Example 4, a person, Zoloft, topiramate as needed) was “effective” and the “adverse effects, patient report” value ([2]; Example 4, a person, topiramate) was “no adverse effects”. For the same molecule, the “excessive sweating, patient report” value ([2]; Example 5, a person, Wellbutrin XL, Cymbalta, Pristiq, topiramate 50 mg daily) was “suboptimal improvement”, the “excessive sweating, patient report” value ([2]; Example 5, a person, topiramate 50 mg twice daily, improvement reported for five months thereafter) was “satisfactory” and the “excessive perspiration, patient report” value ([2]; Example 6, a person, Wellbutrin XL and Cymbalta, topiramate 25 mg daily, over eighteen months) was “satisfactory resolution”. The “adverse effects, patient report” value ([2]; Example 6, a person, topiramate 25 mg daily, over eighteen months) was “without any adverse effects”, the “excessive sweating, patient report” value ([2]; Example 7, a person, Aricept and Cymbalta 30 mg, topiramate 25 mg then 50 mg at bedtime) was “complete resolution” and the “adverse effects, patient report” value ([2]; Example 7, a person, topiramate 25 mg then 50 mg at bedtime) was “no adverse effects”. The “patients who experienced a significant response” value [3] was “Over 95%”.
